{"source": "paper PMC6658617", "about": "“Structure-Guided Identification of Resistance Breaking Antimalarial N‑Myristoyltransferase Inhibitors” (Cell Chemical Biology, 2019)", "key": {"[1]": {"test_system": "P. falciparum 3D7 parasites (PfNMT[WT])", "assay": "microbe, parasite or virus in culture", "type": "cell-based", "conditions": "for EC50: Plasmodium falciparum"}, "[2]": {"test_system": "P. falciparum 3D7 PfNMT[G386E] clones", "assay": "microbe, parasite or virus in culture", "type": "cell-based", "conditions": "for EC50: Plasmodium falciparum"}, "[3]": {"test_system": "P. falciparum 3D7 parasites", "parameters": "method as in Wright et al., 2014", "conditions": "four times the EC50 concentration from beginning of 48-h cycle, ref Wright et al., 2014; cited from earlier work"}, "[4]": {"test_system": "WT 3D7 parasites", "assay": "Flow cytometry of Hoechst-stained parasites (number of nuclei)", "type": "cell-based, P. falciparum", "conditions": "140 nM for 45 h from ring stage", "method": "Synchronized parasites were incubated with DMSO or NMTi and samples were fixed in 2% PFA, 0.2 % glutaraldehyde for 1 hour at 45 h PI. Subsequently samples were washed in PBS and labelled with 1:500 of 10 mg/mL Hoechst 33342 for 10 min with a subsequent wash in PBS. For analysis, a Flow Cytometry CL1 Fortessa D Analyzer from BD with FACSDiva software v8.0.1 was used with the 450-50 filter counting 50,000 RBC per sample. Data were analyzed using FlowJo LLC 2006-2015 to determine the median fluorescence intensity (MFI) of each sample after gating out the RBC population using an RBC only sample as a control. The MFI of each sample was divided by the MFI of a control sample of synchronized rings with a known MFI of one nucleus."}, "[5]": {"biological_target": "T1, PvNMT[G386E] (Plasmodium vivax, UniProt A5K1A2, G386E)", "T1 sequence (A5K1A2 27-410 G386E)": "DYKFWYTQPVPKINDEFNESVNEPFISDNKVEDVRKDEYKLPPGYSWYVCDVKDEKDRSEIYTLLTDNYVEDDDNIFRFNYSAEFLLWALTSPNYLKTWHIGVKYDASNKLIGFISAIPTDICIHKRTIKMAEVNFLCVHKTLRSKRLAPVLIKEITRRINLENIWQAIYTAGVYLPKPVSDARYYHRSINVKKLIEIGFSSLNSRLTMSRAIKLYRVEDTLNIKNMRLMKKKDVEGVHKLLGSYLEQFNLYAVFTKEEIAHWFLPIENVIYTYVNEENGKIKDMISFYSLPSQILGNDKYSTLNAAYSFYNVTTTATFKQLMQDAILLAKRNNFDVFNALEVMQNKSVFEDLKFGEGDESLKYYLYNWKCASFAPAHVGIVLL", "assay": "biochemical", "type": "biochemical, P. vivax"}, "[6]": {"test_system": "IMP-1002-resistant P. falciparum Dd2 parasites (uncloned population and clones, NMT G386E)", "assay": "microbe, parasite or virus in culture", "type": "cell-based", "conditions": "for EC50: Plasmodium falciparum, DD2, 72 h"}, "[7]": {"test_system": "N-myristoylation in PfNMT[G386E] parasite clones", "type": "cell-based", "conditions": "140 nM, 36–45 h post-invasion"}, "[8]": {"test_system": "P. falciparum 3D7 parasites", "assay": "Parasite development and GAP45 immunofluorescence at four times EC50", "type": "cell-based", "conditions": "at four times the EC50 value (140 nM), 45 h PI", "method": "For IFA, slides were air dried, fixed in 4 % paraformaldehyde (PFA) in PBS for 10–20 min, permeabilized in 0.1 % Triton X-100 in PBS for 10 min, and blocked with 3 % BSA in PBS for at least 30 min at 4°C. GAP45 detection was achieved using a primary rabbit anti-GAP45-antibody ([Rees-Channer et al., 2006]). Slides were mounted in ProLong® Gold Antifade mounting medium containing DAPI (4’,6-diamidino-2-phenylindole), and viewed on a Nikon Eclipse Ni-E imaging system with a Hamamatsu Orca-flash 4.0 digital camera and a Plan apo λ 100x/1.45 oil immersion objective. Images were captured using Nikon’s NIS-Elements imaging software generating Z-stack images of individual parasites, using deconvolution options and exporting the image as a tiff file, which was further edited using Adobe Photoshop."}, "[9]": {"test_system": "PfNMT[G386E] parasites", "assay": "microbe, parasite or virus in culture", "type": "cell-based"}, "[10]": {"test_system": "N-myristoylation in WT 3D7 parasites", "assay": "YnMyr metabolic labelling of NMT substrates", "type": "cell-based, P. falciparum", "conditions": "140 nM, 36–45 h post-invasion", "method": "Synchronized populations of stage-specific parasites were labelled with 25 μM of YnMyr for the specified length of time. Parasites were then lysed in 0.15 % saponin for 10 min on ice. The pellet was washed until the supernatant was colorless and then stored at -80°C. Thawed parasite pellets were extracted in 1 % Triton X-100, 0.1 % SDS in PBS on ice for 20 min with 1 min sonication. The protein concentration of the lysate was measured by BCA assay and adjusted to 1 mg/mL with PBS. The capture reagent was ‘clicked’ (100 μM capture reagent AzRB2, 1 mM CuSO4, 1 mM TCEP, 100 μM TBTA), the reaction was quenched with EDTA, and then precipitated proteins were washed with ice cold methanol as described previously ([Heal et al., 2011], [Wright et al., 2015]). Proteins were re-dissolved in 2 % SDS, 10 mM DTT, in PBS at 1 mg/mL and heated for 7 min at 95°C in sample loading buffer prior to SDS-PAGE.\nFollowing the click reaction, the protein solution in PBS containing 2 % SDS, 10 mM DTT was treated with 0.2 M NaOH for 1 h at room temperature with vortexing. Samples were neutralized with an equivalent volume and concentration of HCl and diluted with PBS to 1 mg/mL prior to gel analysis."}, "[11]": {"biological_target": "T2, PvNMT[WT] (Plasmodium vivax, UniProt A5K1A2)", "T2 construct": "hexaHis (3C protease-cleavable) (N); made in house; host or cells: E. coli Rosetta-gami (DE3), pET11a", "T2 sequence (A5K1A2 entry or part of it)": "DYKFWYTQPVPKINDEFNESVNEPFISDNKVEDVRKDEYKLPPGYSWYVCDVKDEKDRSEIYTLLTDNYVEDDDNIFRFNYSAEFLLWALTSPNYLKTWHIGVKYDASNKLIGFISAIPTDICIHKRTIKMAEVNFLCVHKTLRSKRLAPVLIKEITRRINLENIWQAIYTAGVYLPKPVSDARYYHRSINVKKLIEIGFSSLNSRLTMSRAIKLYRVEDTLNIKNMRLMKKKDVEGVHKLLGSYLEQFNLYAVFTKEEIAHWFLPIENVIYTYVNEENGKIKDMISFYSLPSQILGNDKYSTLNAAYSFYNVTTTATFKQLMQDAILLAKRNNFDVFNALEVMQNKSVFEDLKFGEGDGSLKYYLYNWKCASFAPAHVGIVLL", "type": "binding", "conditions": "SPR sensorgrams"}, "[12]": {"test_system": "P. falciparum Dd2 parental line", "assay": "microbe, parasite or virus in culture", "type": "cell-based", "conditions": "EC50 after 72 h (n = 3)"}, "[13]": {"biological_target": "T1, PvNMT[G386E]", "type": "binding, P. vivax"}, "[14]": {"biological_target": "HsNMT2 (Homo sapiens, UniProt O60551)", "sequence (O60551 whole entry)": "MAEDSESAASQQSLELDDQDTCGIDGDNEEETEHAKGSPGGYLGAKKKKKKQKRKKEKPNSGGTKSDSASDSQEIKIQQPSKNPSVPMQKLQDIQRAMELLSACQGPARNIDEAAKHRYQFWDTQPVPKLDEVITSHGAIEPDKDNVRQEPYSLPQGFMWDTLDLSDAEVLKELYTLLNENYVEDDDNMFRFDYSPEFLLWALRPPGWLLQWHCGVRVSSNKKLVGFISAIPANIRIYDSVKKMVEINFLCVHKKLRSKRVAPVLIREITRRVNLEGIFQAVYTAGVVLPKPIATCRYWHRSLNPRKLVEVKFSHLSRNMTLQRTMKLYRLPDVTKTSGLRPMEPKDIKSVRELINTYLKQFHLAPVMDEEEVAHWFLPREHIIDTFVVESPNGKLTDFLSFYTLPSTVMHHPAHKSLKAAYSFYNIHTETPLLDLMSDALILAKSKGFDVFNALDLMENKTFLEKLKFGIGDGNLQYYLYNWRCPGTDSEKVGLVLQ", "type": "biochemical", "conditions": "selectivity, CPM assay"}, "[15]": {"biological_target": "HsNMT1 (Homo sapiens, UniProt P30419)", "sequence (P30419 whole entry)": "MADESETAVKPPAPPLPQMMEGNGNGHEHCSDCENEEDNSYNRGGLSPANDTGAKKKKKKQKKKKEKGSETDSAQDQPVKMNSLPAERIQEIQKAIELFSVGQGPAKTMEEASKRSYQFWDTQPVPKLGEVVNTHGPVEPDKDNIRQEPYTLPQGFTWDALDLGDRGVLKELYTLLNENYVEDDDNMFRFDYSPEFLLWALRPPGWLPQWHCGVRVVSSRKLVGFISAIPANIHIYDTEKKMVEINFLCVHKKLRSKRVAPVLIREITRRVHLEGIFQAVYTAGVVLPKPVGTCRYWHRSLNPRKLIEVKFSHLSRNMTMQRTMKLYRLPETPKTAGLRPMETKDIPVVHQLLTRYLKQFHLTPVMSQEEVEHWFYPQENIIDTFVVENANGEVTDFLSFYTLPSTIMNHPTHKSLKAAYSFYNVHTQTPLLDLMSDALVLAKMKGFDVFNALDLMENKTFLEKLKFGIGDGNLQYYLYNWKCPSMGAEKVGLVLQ", "type": "biochemical", "conditions": "selectivity, CPM assay"}, "[16]": {"biological_target": "T1, PvNMT[G386E]", "assay": "Thermal shift assay", "type": "binding, P. vivax", "conditions": "5 μM compound"}, "[17]": {"biological_target": "T2, PvNMT[WT]", "assay": "biochemical", "type": "binding", "conditions": "5 μM compound, absence of MyrCoA; read-out: thermal stabilization (ΔTm) of PvNMT[WT]"}, "[18]": {"conditions": "3D7, read-out: Growth assay PfNMT[WT] EC50"}, "[19]": {"conditions": "3D7, read-out: Growth assay PfNMT[G386E] Clone 1 EC50"}, "[20]": {"conditions": "3D7, read-out: Growth assay PfNMT[G386E] Clone 2 EC50"}}, "note": "Read-outs that look alike come from different tables or passages of the source."}
{"smiles": "Cc1nn(C)c(C)c1NS(=O)(=O)c1c(Cl)cc(-c2ccnc(N3CCNCC3)c2)cc1Cl", "note": "[DDD85646, reference compound]", "values": [{"measurement": "EC50", "setting": "[1]; [18]", "value": 69, "unit": "nM"}, {"measurement": "EC50", "setting": "[2]; [19]", "value": 91, "unit": "nM"}, {"measurement": "EC50", "setting": "[2]; [20]", "value": 103, "unit": "nM"}, {"measurement": "nuclei at stalled pseudoschizont stage", "setting": "[3]", "value": "4–6 nuclei"}]}
{"smiles": "Cc1nn(C)c(C)c1CCOc1cc(F)ccc1-c1ccc2c(c1)c(CN(C)C)nn2C", "note": "[IMP-1002, 1-(5-(4-fluoro-2-(2-(1,3,5-trimethyl-1H-pyrazol-4-yl)ethoxy)phenyl)-1-methyl-1H-indazol-3-yl)-N,N-dimethylmethanamine]", "values": [{"measurement": "fold more potent in killing parasites than DDD85646", "setting": "[1]", "value": 4, "unit": "fold"}, {"measurement": "EC50", "setting": "[1]; [18]", "value": 9.6, "unit": "nM"}, {"measurement": "EC50", "setting": "[1]; 3D7 parasites, initial EC50 determination (Figures 2A, S2A), read-out: parasite growth EC50", "value": 34, "unit": "nM"}, {"measurement": "number of nuclei versus DMSO control, WT parasites", "setting": "[4]", "value": "reduced number of nuclei"}, {"measurement": "IC50 ratio of G386E/WT on average", "setting": "[5]", "value": 2.6}, {"measurement": "Ratio PvNMT[G386E]/PvNMT[WT] IC50, Replicate 1", "setting": "[5]", "value": 3.1}, {"measurement": "Ratio PvNMT[G386E]/PvNMT[WT] IC50, Replicate 2", "setting": "[5]", "value": 3.4}, {"measurement": "Ratio PvNMT[G386E]/PvNMT[WT] IC50, Replicate 3", "setting": "[5]", "value": 1.4}, {"measurement": "IC50", "setting": "[5]; PvNMT[G386E] IC50, Replicate 1", "value": 6, "unit": "nM"}, {"measurement": "IC50", "setting": "[5]; PvNMT[G386E] IC50, Replicate 2", "value": 7.1, "unit": "nM"}, {"measurement": "IC50", "setting": "[5]; PvNMT[G386E] IC50, Replicate 3", "value": 6.9, "unit": "nM"}, {"measurement": "EC50", "setting": "[6]; read-out: EC50 Clone 01", "value": "270 ± 40", "unit": "nM"}, {"measurement": "EC50", "setting": "[6]; read-out: EC50 Clone 02", "value": "300 ± 140", "unit": "nM"}, {"measurement": "EC50", "setting": "[6]; read-out: EC50 Clone 03", "value": "240 ± 63", "unit": "nM"}, {"measurement": "EC50", "setting": "[6]; read-out: EC50 uncloned population", "value": "320 ± 50", "unit": "nM"}, {"measurement": "increase in EC50 of IMP-1002-resistant clones", "setting": "[6]; resistant Dd2 clones versus Dd2 parental line", "value": 14, "unit": "fold"}, {"measurement": "YnMyr labeling in PfNMT[G386E] parasite clones", "setting": "[7]", "value": "no reduction in labeling"}, {"measurement": "accumulation of NMT substrate GAP45", "setting": "[8]", "value": "inhibiting accumulation"}, {"measurement": "number of nuclei versus DMSO control, PfNMT[G386E] parasites", "setting": "[9]; 140 nM for 45 h from ring stage", "value": "no difference"}, {"measurement": "inhibition at 0.14 µM", "setting": "[9]; Plasmodium falciparum, read-out: inhibition of [G386E] parasites", "value": 0, "unit": "%"}, {"measurement": "YnMyr labeling in WT parasites", "setting": "[10]", "value": "clear decrease in YnMyr labeling"}, {"measurement": "Ratio PfNMT[G386]/PfNMT[WT] EC50, Clone 1", "setting": "[2]; EC50 of [G386E]/[WT], Clone 1", "value": 24}, {"measurement": "Ratio PfNMT[G386]/PfNMT[WT] EC50, Clone 2", "setting": "[2]; EC50 of [G386E]/[WT], Clone 2", "value": 21}, {"measurement": "EC50", "setting": "[2]; [19]", "value": 230, "unit": "nM"}, {"measurement": "EC50", "setting": "[2]; [20]", "value": 201, "unit": "nM"}, {"measurement": "dissociation rate with PvNMT[WT]", "setting": "[11]", "value": "slow dissociation rate"}, {"measurement": "EC50", "setting": "[12]", "value": 35, "unit": "nM"}, {"measurement": "EC50", "setting": "[12]; Plasmodium falciparum, DD2, 72 h", "value": "20.4 ± 4.9", "unit": "nM"}, {"measurement": "decrease in affinity (KD PvNMT[G386E] / KD PvNMT[WT])", "setting": "[13]", "value": "approximately 5 fold"}, {"measurement": "HsNMT2/PvNMT fold difference in IC50", "setting": "[14]", "value": 3.84}, {"measurement": "HsNMT1/PvNMT fold difference in IC50", "setting": "[15]", "value": 2.32}, {"measurement": "thermal stabilization (ΔTm) of PvNMT[G386E]", "setting": "[16]; absence of MyrCoA", "value": 1.8, "unit": "°C"}, {"measurement": "ΔΔTm between PvNMT[WT] and PvNMT[G386E]", "setting": "[16]; absence of MyrCoA (Table S4A), in favor of WT", "value": "> 7.0", "unit": "°C"}, {"measurement": "ΔTm at 5 µM", "setting": "[17]", "value": "> 8.8", "unit": "°C"}]}
